According to patent US6777387B2, “Terminally-branched polymeric linkers containing extension moieties and polymeric conjugates containing the same” (Enzon Pharmaceuticals, Inc., priority 2000, dated 2004):

Tests used:
[1] = system: human non-small cell lung carcinoma (LX-1); assay: Efficacy against subcutaneous LX-1 xenograft in nude mice; assay type: in vivo; conditions: i.v.; for T/C(%) at Day 14: median tumor volume treated vs control when control ~1000 mm^3; for T/C (%) at Day 21: median tumor volume treated vs control when control ~2000 mm^3
Procedure: ^13C NMR spectra were obtained at 67.80 MHz on the JNM GSX-270 or 75.46 MHz on the Varian MercuryVX-300. Chemical shifts (δ) are reported in parts per million (ppm) downfield from tetramethylsilane (TMS) and coupling constants (J values) are given in hertz (Hz). All PEG conjugated compounds were dissolved (˜15 mg/mL) in sterile saline (0.9%) for injection prior to in vivo drug treatments and were given as their ara-C equivalents (absolute amount of ara-C given).
Athymic nude mice were implanted subcutaneous with a 4-5 mm^3 tissue fragment of LX-1 collected from donor mice. The tumor trocar site was observed twice weekly and measured once palpable. The tumor volume for each mouse was determined by measuring two dimensions with calipers and calculated using the formula: tumor volume=(length×width^2)/2. […] The mice were sorted to evenly distribute tumor size, grouped into 4 to 6 mice/group, and ear punched for permanent identification. Drugs were administered intravenously q3d×4 (Day 1, 4, 7 and 10) via the tail vein at an approximate rate of 0.5 mL per minute. Compounds were given both at an equal molar basis (absolute amount of active) of 20 mg/kg and at close their respective MTD (Ara-C, 100 mg/kg/dose (toxicity); PEG-AraC, 40 to 60 mg/kg/dose (volume). Mouse weight and tumor size were measured at the beginning of study and twice weekly through week 4. Drug effectiveness was determined by comparing tumor growth in treated versus untreated (no vehicle) control mice. Five types of endpoints were used as the basis for comparison: (a) mean tumor volumes at Day 28; (b) mean percent change in individual tumor volumes from initial; (c) percent difference in tumor volume (%T/C), measured when the control group's median tumor volume reached approximately 800-1100 mm^3 (exponential growth phase); (d) percent difference in tumor volume (%T/C) at Day 21 (˜2000 mm^3) and (e) the number of tumor regression (smaller tumor volume at Day 21 (˜2000 mm^3) and (e) the number of tumor regression (smaller tumor volume on Day 28 compared to Day 1) per group.

P388/0 = assay: Cytotoxicity assay, P388/0 cells (Alamar Blue); assay type: cell-based; conditions: 37° C., 3 days incubation, duplicate, SD ±10%
Procedure: Cell Lines and Cytotoxicity Assays. Studies using P388/0 cell lines for IC50 (drug concentration inhibiting growth of cells by 50%) were maintained and conducted as previously reported. Briefly, for IC50 determination, cells were seeded into the microwell plates at a density […] per 50 μL per well. Plates were incubated at 37° C. in a humidified incubator with 5% CO2 for 3 days. Cell growth was measured by the addition of 10 μL/well of Alamar Blue (Alamar Biosciences, Inc., Sacramento, Calif.) and the plates were incubated a further 4 hours at 37° C. The IC50 values for each compound were determined from absorbance versus dilution factor plots. […] All cell lines were periodically tested for Mycoplasma and were Mycoplasma free.

## Nc1ccn([C@@H]2O[C@H](CO)[C@@H](O)[C@@H]2O)c(=O)n1 [Ara-C, ara-C]
[1]; total dose 80 mg/kg
  Complete Regression (#/Grp): 0/4
  Regression at Day 28 (#/Grp): 0/4
  T/C(%) at Day 14: 51.1%
  T/C (%) at Day 21: 52.2%
[1]; total dose 400 mg/kg
  Complete Regression (#/Grp): 0/6
  Regression at Day 28 (#/Grp): 1/6
  T/C(%) at Day 14: 16.7%
  T/C (%) at Day 21: 33.4%
P388/0
  IC50: 10 nM
